US20130338130A1 (priority 2009, published 2013)
Where two headings read alike, the source gives them in different places.

Assays:
[1] = system: ATCC strain 43300 Staphylococcus aureus; conditions: 24 hours; for average log reduction in cfu/ml: MSM (% in label) with antibiotic (12, 30, 60 μg/ml oxacillin or methicillin)
Description: All concentrations were plated out to the 10^−7 dilutions to ascertain cfu/ml.
ATCC strain 43300 Staphylococcus aureus was streaked out for isolations and 25 clones were picked and diluted to a McFarland standard of one. The estimated value was then taken to inoculate tubes containing growth media and 12, 30 or 60 μg/ml methicillin or oxacillin with around 10^−7 cfu/tube.
Material was calculated on a 10 ml volume. Sterile oxacillin or methicillin was added to each experimental condition to a final concentration of 12, 30 or 60 μg/ml antibiotic.
All tubes were then inoculated with a dilution of the selected ATCC strain 43300 Staphylococcus aureus clone giving a final level of colony forming units of 9.4×10^7/ml (log=7.97). The tubes were incubated at 25° C. and mixed periodically. […] Plating was done at 24 hours. Each condition was plated by diluting 1 ml of growth material into 9 ml of MLB diluent broth. This mixture was serial diluted down to 10^−7, and 1 ml placed in a sterile petri dish at each dilution point. 20 mls of TSA was added to each dilution, swirled and allowed to solidify. All dilutions were placed in a 35° C. incubator for 24 hours. Bacterial colonies on each plate were counted and colony counts changed into log format. A positive and negative control was ascertained.

[2] = system: ATCC strain 43300 Staphylococcus aureus; assay: MRSA survival in MSM and 6 μg/ml oxacillin or methicillin, 24, 48, 120 hours (Example 4); conditions: 6 μg/ml methicillin + MSM (initial % in label)
Description: The growth periods tested were 24 hours, 48 hours and 5 days.
USP<51> Antimicrobial Effectiveness protocol was used as the template experimental paradigm. […] All concentrations were plated out to the 10^−7 dilutions to ascertain cfu/ml.
Material was calculated on a 10 ml volume. Sterile oxacillin or methicillin was added to each experimental condition daily at 300 μl from a 30 mg/10 ml concentration giving it an initial final concentration of 6 μg/ml.
All tubes were inoculated with a dilution of MRSA giving a final level of colony forming units of 2.13×10^6/ml (Log=6.3). The tubes were incubated at 25° C. and mixed periodically. Plating was done at 24 hours, 48 hours and 5 days. Each condition was plated by diluting 1 ml of growth material into 9 ml of MLB diluent broth. This mixture was serial diluted down to 10^−7, and 1 ml placed in a sterile petri dish at each dilution point. 20 mls of TSA was added to each dilution, swirled and allowed to solidify. All dilutions were placed in a 35° C. incubator for 24 hours. Bacterial colonies on each plate were counted and colony counts changed into log format. A positive and negative control was ascertained.

Q: `CS(C)(=O)=O` [MSM, Methylsulfonylmethane] was tested. Which “survival (Log cfu/ml)” value ([1]; 12 μg/ml methicillin + MSM (% in label), inoculum log=7.97, listed as 5% MSM) did it give?
A: Its value is 5.43 Log cfu/ml.

Q: And the “survival (Log cfu/ml)” value ([1]; 12 μg/ml methicillin + MSM (% in label), inoculum log=7.97, listed as 6% MSM)?
A: The value was 5.2 Log cfu/ml.

Q: And the “survival (Log cfu/ml)” value ([1]; 12 μg/ml methicillin + MSM (% in label), inoculum log=7.97, listed as 7% MSM)?
A: The value was 5.46 Log cfu/ml.

Q: And the “survival (Log cfu/ml)” value ([1]; 12 μg/ml methicillin + MSM (% in label), inoculum log=7.97, listed as 8% MSM)?
A: The value was 5.0 Log cfu/ml.

Q: And the “survival (Log cfu/ml)” value ([1]; 12 μg/ml methicillin + MSM (% in label), inoculum log=7.97, listed as 9% MSM)?
A: Its value is 4.99 Log cfu/ml.

Q: And the “survival (Log cfu/ml)” value ([1]; 12 μg/ml methicillin + MSM (% in label), inoculum log=7.97, listed as 10% MSM)?
A: The value was 4.8 Log cfu/ml.

Q: And the “survival (Log cfu/ml)” value ([1]; 12 μg/ml methicillin + MSM (% in label), inoculum log=7.97, listed as 11% MSM)?
A: Its value is 4.87 Log cfu/ml.

Q: And the “survival (Log cfu/ml)” value ([1]; 12 μg/ml methicillin + MSM (% in label), inoculum log=7.97, listed as 12% MSM)?
A: The value was 4.89 Log cfu/ml.

Q: What about the “survival (Log cfu/ml)” value ([1]; 12 μg/ml methicillin + MSM (% in label), inoculum log=7.97, listed as 13% MSM) of the same molecule?
A: Its value is 4.77 Log cfu/ml.

Q: What about the “survival (Log cfu/ml)” value ([1]; 12 μg/ml methicillin + MSM (% in label), inoculum log=7.97, listed as 14% MSM) of the same molecule?
A: Its value is 4.7 Log cfu/ml.

Q: What about the “survival (Log cfu/ml)” value ([1]; 12 μg/ml oxacillin + MSM (% in label), listed as 5% MSM) of the same molecule?
A: The value was 5.28 Log cfu/ml.

Q: What about the “survival (Log cfu/ml)” value ([1]; 12 μg/ml oxacillin + MSM (% in label), listed as 6% MSM) of the same molecule?
A: Its value is 5.26 Log cfu/ml.

Q: And the “survival (Log cfu/ml)” value ([1]; 12 μg/ml oxacillin + MSM (% in label), listed as 7% MSM)?
A: Its value is 5.18 Log cfu/ml.

Q: What about the “survival (Log cfu/ml)” value ([1]; 12 μg/ml oxacillin + MSM (% in label), listed as 8% MSM) of the same molecule?
A: The value was 5.18 Log cfu/ml.

Q: And the “survival (Log cfu/ml)” value ([1]; 12 μg/ml oxacillin + MSM (% in label), listed as 9% MSM)?
A: The value was 5.16 Log cfu/ml.

Q: And the “survival (Log cfu/ml)” value ([1]; 12 μg/ml oxacillin + MSM (% in label), listed as 10% MSM)?
A: Its value is 4.96 Log cfu/ml.

Q: What about the “survival (Log cfu/ml)” value ([1]; 12 μg/ml oxacillin + MSM (% in label), listed as 11% MSM) of the same molecule?
A: Its value is 4.8 Log cfu/ml.

Q: What about the “survival (Log cfu/ml)” value ([1]; 12 μg/ml oxacillin + MSM (% in label), listed as 12% MSM) of the same molecule?
A: The value was 4.8 Log cfu/ml.

Q: And the “survival (Log cfu/ml)” value ([1]; 12 μg/ml oxacillin + MSM (% in label), listed as 13% MSM)?
A: Its value is 4.9 Log cfu/ml.

Q: What about the “survival (Log cfu/ml)” value ([1]; 12 μg/ml oxacillin + MSM (% in label), listed as 14% MSM) of the same molecule?
A: Its value is 4.88 Log cfu/ml.

Q: What about the “survival (Log cfu/ml)” value ([1]; 30 μg/ml methicillin + MSM (% in label), listed as 9% MSM) of the same molecule?
A: Its value is 5.07 Log cfu/ml.

Q: And the “survival (Log cfu/ml)” value ([1]; 30 μg/ml methicillin + MSM (% in label), listed as 10% MSM)?
A: The value was 4.8 Log cfu/ml.

Q: And the “survival (Log cfu/ml)” value ([1]; 30 μg/ml methicillin + MSM (% in label), listed as 11% MSM)?
A: The value was 4.8 Log cfu/ml.

Q: And the “survival (Log cfu/ml)” value ([1]; 30 μg/ml methicillin + MSM (% in label), listed as 12% MSM)?
A: Its value is 4.7 Log cfu/ml.

Q: And the “survival (Log cfu/ml)” value ([1]; 30 μg/ml methicillin + MSM (% in label), listed as 13% MSM)?
A: Its value is 4.7 Log cfu/ml.

Q: And the “survival (Log cfu/ml)” value ([1]; 30 μg/ml methicillin + MSM (% in label), listed as 14% MSM)?
A: The value was 4.6 Log cfu/ml.

Q: What about the “survival (Log cfu/ml)” value ([1]; 30 μg/ml methicillin + MSM (% in label), listed as 15% MSM) of the same molecule?
A: The value was 4.54 Log cfu/ml.

Q: What about the “survival (Log cfu/ml)” value ([1]; 30 μg/ml methicillin + MSM (% in label), listed as 16% MSM) of the same molecule?
A: Its value is 4.47 Log cfu/ml.

Q: What about the “survival (Log cfu/ml)” value ([1]; 30 μg/ml oxacillin + MSM (% in label), listed as 9% MSM) of the same molecule?
A: Its value is 5.02 Log cfu/ml.

Q: What about the “survival (Log cfu/ml)” value ([1]; 30 μg/ml oxacillin + MSM (% in label), listed as 10% MSM) of the same molecule?
A: Its value is 4.99 Log cfu/ml.

Q: What about the “survival (Log cfu/ml)” value ([1]; 30 μg/ml oxacillin + MSM (% in label), listed as 11% MSM) of the same molecule?
A: The value was 4.94 Log cfu/ml.

Q: And the “survival (Log cfu/ml)” value ([1]; 30 μg/ml oxacillin + MSM (% in label), listed as 12% MSM)?
A: The value was 4.87 Log cfu/ml.

Q: And the “survival (Log cfu/ml)” value ([1]; 30 μg/ml oxacillin + MSM (% in label), listed as 13% MSM)?
A: The value was 4.9 Log cfu/ml.

Q: And the “survival (Log cfu/ml)” value ([1]; 30 μg/ml oxacillin + MSM (% in label), listed as 14% MSM)?
A: The value was 4.82 Log cfu/ml.

Q: And the “survival (Log cfu/ml)” value ([1]; 30 μg/ml oxacillin + MSM (% in label), listed as 15% MSM)?
A: Its value is 4.74 Log cfu/ml.

Q: And the “survival (Log cfu/ml)” value ([1]; 30 μg/ml oxacillin + MSM (% in label), listed as 16% MSM)?
A: The value was 4.59 Log cfu/ml.

Q: What about the “average log reduction in cfu/ml” value ([1]; listed as 5% MSM) of the same molecule?
A: The value was 2.2 log.

Q: What about the “average log reduction in cfu/ml” value ([1]; listed as 16% MSM) of the same molecule?
A: The value was 3.3 log.

Q: What about the colony numbers ([1]; MSM without antibiotic control condition) of the same molecule?
A: Its colony numbers is “greater colony numbers than what was initially inoculated”.

Q: And the “survival (Log cfu/ml)” value ([2]; 48 Hours, listed as 8% MSM)?
A: Its value is 3.60 Log cfu/ml.

Q: What about the “survival (Log cfu/ml)” value ([2]; 48 Hours, listed as 10% MSM) of the same molecule?
A: The value was 3.70 Log cfu/ml.

Q: What about the “survival (Log cfu/ml)” value ([2]; 48 Hours, listed as 12% MSM) of the same molecule?
A: Its value is 3.70 Log cfu/ml.

Q: And the “survival (Log cfu/ml)” value ([2]; 48 Hours, listed as 13% MSM)?
A: The value was 3.90 Log cfu/ml.

Q: What about the “survival (Log cfu/ml)” value ([2]; 48 Hours, listed as 14% MSM) of the same molecule?
A: The value was 3.98 Log cfu/ml.

Q: What about the “survival (Log cfu/ml)” value ([2]; 48 Hours, listed as 15% MSM) of the same molecule?
A: Its value is 4.00 Log cfu/ml.

Q: What about the “survival (Log cfu/ml)” value ([2]; 24 hours, 3.5% MSM and antibiotic added daily, inoculum Log=6.3) of the same molecule?
A: Its value is 4.30 Log cfu/ml.

Q: And the “survival (Log cfu/ml)” value ([2]; 24 hours, 3.5% MSM and antibiotic added daily, inoculum Log=6.3, listed as 8% MSM)?
A: Its value is 4.50 Log cfu/ml.

Q: What about the “survival (Log cfu/ml)” value ([2]; 24 hours, 3.5% MSM and antibiotic added daily, inoculum Log=6.3, listed as 10% MSM) of the same molecule?
A: The value was 4.40 Log cfu/ml.

Q: What about the “survival (Log cfu/ml)” value ([2]; 24 hours, 3.5% MSM and antibiotic added daily, inoculum Log=6.3, listed as 12% MSM) of the same molecule?
A: The value was 4.60 Log cfu/ml.

Q: What about the “survival (Log cfu/ml)” value ([2]; 24 hours, 3.5% MSM and antibiotic added daily, inoculum Log=6.3, listed as 13% MSM) of the same molecule?
A: The value was 4.90 Log cfu/ml.

Q: And the “survival (Log cfu/ml)” value ([2]; 24 hours, 3.5% MSM and antibiotic added daily, inoculum Log=6.3, listed as 14% MSM)?
A: The value was 4.90 Log cfu/ml.

Q: And the “survival (Log cfu/ml)” value ([2]; 24 hours, 3.5% MSM and antibiotic added daily, inoculum Log=6.3, listed as 15% MSM)?
A: Its value is 5.00 Log cfu/ml.

Q: What about the “survival (Log cfu/ml)” value ([2]; 24 hours, 3.5% MSM and antibiotic added daily, inoculum Log=6.3, listed as 16% MSM) of the same molecule?
A: Its value is 5.00 Log cfu/ml.

Q: And the “average log reduction in cfu/ml” value ([2]; 48 hours, listed as 5% MSM)?
A: The value was 2.7 log.

Q: And the “survival (Log cfu/ml)” value ([2]; 48 hours, listed as 5% MSM)?
A: Its value is 3.60 Log cfu/ml.
